Tests used:
[1] = system: NOD mouse model of autoimmune type 1 diabetes; settings: Cetkovic-Cvrlje et al. 2003; cited from earlier work
[2] = system: myeloid dendritic cells (DCs); settings: CD40-induced maturation of myeloid DCs; Saemann et al. 2003; cited from earlier work

Procedure for JAK: Compounds herein are tested for inhibitory activity of JAK targets according to the following in vitro assay described in Park et al., Analytical Biochemistry 1999, 269, 94-104. The catalytic domains of human JAK1 (a.a. 837-1142), Jak2 (a.a. 828-1132) and Jak3 (a.a. 781-1124) with an N-terminal His tag are expressed using baculovirus in insect cells and purified. The catalytic activity of JAK1, JAK2 or JAK3 is assayed by measuring the phosphorylation of a biotinylated peptide. The phosphorylated peptide is detected by homogenous time resolved fluorescence (HTRF). IC50s of compounds is measured for each kinase in the reactions that contain the enzyme, ATP and 500 nM peptide in 50 mM Tris (pH 7.8) buffer with 100 mM NaCl, 5 mM DTT, and 0.1 mg/mL (0.01%) BSA. The ATP concentration in the reactions is 90 μM for Jak1, 30 μM for Jak2 and 3 μM for Jak3. Reactions are carried out at room temperature for 1 hr and then stopped with 20 μL 45 mM EDTA, 300 nM SA-APC, 6 nM Eu-Py20 in assay buffer (Perkin Elmer, Boston, Mass.). Binding to the Europium labeled antibody takes place for 40 minutes and HTRF signal is measured on a Fusion plate reader (Perkin Elmer, Boston, Mass.).

Question: Which JAK inhibitor activity (JAK; qualitative, b1163: IC50 of 10 μM or less for any JAK target (JAK1, JAK2, JAK3) is considered active) does the source give for N#CC[C@H](C1CCCC1)n1cc(-c2ncnc3[nH]ccc23)cn1 (mixture of isomers) [Example 67, (3R)- and (3S)-3-Cyclopentyl-3-[4-(7H-pyrrolo[2,3-d]pyrimidin-4-yl)-1H-pyrazol-1-yl]propanenitrile] here?
Answer: active JAK inhibitors

Question: With N#CCC(C1CCCC1)n1cc(-c2ncnc3[nH]ccc23)cn1 (single isomer, unassigned; peak 3) [Example 67 second peak, 3-Cyclopentyl-3-[4-(7H-pyrrolo[2,3-d]pyrimidin-4-yl)-1H-pyrazol-1-yl]propanenitrile] as the molecule, how does the “JAK inhibitor activity relative to its enantiomer” value (JAK; final products from the enantiomers separated by preparative-HPLC (OD-H)) read?
Answer: more active than its enantiomer

Question: For COc1cc2ncnc(Nc3ccc(O)cc3)c2cc1OC [JANEX-1], which immunomodulatory activity [1] is on record?
Answer: potent immunomodulatory activity

Question: And the onset of diabetes [1]?
Answer: delayed the onset of diabetes

Question: With COc1cc2ncnc(Nc3ccc(O)c(Br)c3)c2cc1OC [WHI-P-154] as the molecule, how does the “effect on CD40-induced JAK3 activity, costimulatory molecule expression, IL-12 production and allogeneic stimulatory capacity” value [2] read?
Answer: prevented these effects
